Measured values reported in PMC4246079, “Structure and Mechanism of the Bifunctional CinA Enzyme from Thermus thermophilus” (The Journal of Biological Chemistry, 2014).

Legend:
TtCinA [1] = biological target: T1, TtCinA (Thermus thermophilus, UniProt Q5SHB0); assay: X-ray crystal structure ([…] Å; crystal soak); format: binding; conditions: ADPR site of COG1058 domain, both sites; 5 mM MgCl2, 25 mM ligand, Mg2+ bound; no hydrolysis seen
T1 construct: gene TTHA1820; full-length, N-terminal His6 tag with thrombin site (pET28a, thrombin-treated), expressed in E. coli T7 Express; asymmetric homodimer (~72 kDa by SEC, 86 kDa predicted dimer)

TtCinA [2] = biological target: T1, TtCinA; assay: X-ray crystal structure ([…] Å; crystal soak); format: binding; conditions: ADPR site of COG1058 domain, open site only, weaker density; 5 mM MgCl2, 25 mM ligand (AMP/ribose 5-phosphate), Mg2+ bound
TtCinA [3] = biological target: T1, TtCinA; assay: X-ray crystal structure ([…] Å; crystal soaked with NMN); format: binding; conditions: NMN deamidase site; built as product NCN by presumption, density could not distinguish NMN from NCN; 5 mM MgCl2, 25 mM NMN soak
TtCinA [4] = biological target: T1, TtCinA; assay: X-ray crystal structure ([…] Å; crystal soak); turnover to AMP also seen by HPLC; format: binding; conditions: ADPR site of COG1058 domain, both open and closed sites; 5 mM MgCl2, 25 mM ligand, Mg2+ bound; HPLC assay with 1 mM ADP-ribose, 4 mM CoCl2, 100 mM KCl, pH 8.0, 50 °C
TtCinA [5] = biological target: T1, TtCinA; assay: reverse-phase HPLC of conversion to NCN; format: biochemical; conditions: NMN deamidase; 1 mM NMN, 100 μg enzyme per ml, 25 mM Tris-HCl pH 8.0, 100 mM NaCl, 37 °C, 15 min

T1 sequence (Q5SHB0 entry or part of it): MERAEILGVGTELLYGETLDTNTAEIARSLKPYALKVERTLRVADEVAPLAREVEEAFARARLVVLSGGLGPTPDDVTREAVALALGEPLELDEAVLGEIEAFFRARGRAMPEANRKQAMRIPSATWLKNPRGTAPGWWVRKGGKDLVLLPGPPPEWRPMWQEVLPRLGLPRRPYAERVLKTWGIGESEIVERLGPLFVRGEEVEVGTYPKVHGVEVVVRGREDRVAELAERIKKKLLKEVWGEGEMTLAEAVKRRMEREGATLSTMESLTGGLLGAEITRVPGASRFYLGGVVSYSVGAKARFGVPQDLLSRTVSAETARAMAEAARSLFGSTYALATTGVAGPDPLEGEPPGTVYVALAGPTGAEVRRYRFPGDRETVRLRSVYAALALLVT

With Nc1ncnc2c1ncn2[C@@H]1O[C@H](COP(=O)(O)OP(=O)(O)OP(=O)(O)O)[C@@H](O)[C@H]1O [ATP] the “X-ray crystal structure (2.21 Å; crystal soak)” value (TtCinA [1]) was “ATP binds in a very similar conformation to ADP-ribose”.

In the case of Nc1ncnc2c1ncn2[C@@H]1O[C@H](COP(=O)(O)O)[C@@H](O)[C@H]1O [AMP], the “X-ray crystal structure (1.98 Å; crystal soak)” value (TtCinA [2]) is reported as “it was possible to model in an AMP molecule in one of the two active sites”.

With O=C([O-])c1ccc[n+]([C@@H]2O[C@H](COP(=O)(O)O)[C@@H](O)[C@H]2O)c1 [NCN, nicotinate mononucleotide] the “X-ray crystal structure (2.46 Å; crystal soaked with NMN)” value (TtCinA [3]) was “it was not possible to distinguish NMN from the product, NCN”.

With Nc1ncnc2c1ncn2[C@@H]1O[C@H](COP(=O)(O)OP(=O)(O)OC[C@H]2OC(O)[C@H](O)[C@@H]2O)[C@@H](O)[C@H]1O (some centres unmarked) [ADP-ribose] the “X-ray crystal structure (1.99 Å; crystal soak); turnover to AMP also seen by HPL” value (TtCinA [4]) was “ADP-ribose and ATP data sets produced clear difference density in both catalytic sites”.

With NC(=O)c1ccc[n+]([C@@H]2O[C@H](COP(=O)([O-])O)[C@@H](O)[C@H]2O)c1 [NMN, nicotinamide mononucleotide] the “reverse-phase HPLC of conversion to NCN” value (TtCinA [5]) was “NMN showed rapid conversion to NCN product in the presence of TtCinA”.
